Reference: BigSolDB 2.1

c1cnc2[nH]ccc2c1
solubility (mole fraction)
Details	278.15 K	283.15 K	288.15 K	293.15 K	298.15 K	303.15 K	308.15 K	313.15 K	318.15 K	323.15 K
in THF	0.343	0.361	0.377	0.397	0.419	0.436	0.458	0.479	0.5	0.523
in acetone	0.262	0.282	0.301	0.322	0.341	0.361	0.383	0.402	0.423	0.443
in acetonitrile	0.11	0.116	0.124	0.134	0.145	0.159	0.174	0.193	0.214	0.242
in ethanol	0.152	0.172	0.191	0.211	0.232	0.252	0.275	0.299	0.326	0.356
in ethyl acetate	0.21	0.217	0.226	0.237	0.251	0.265	0.283	0.302	0.324	0.346
in isopropanol	0.204	0.217	0.231	0.247	0.262	0.279	0.298	0.315	0.336	0.36
in methanol	0.228	0.238	0.25	0.262	0.277	0.293	0.31	0.33	0.351	0.372
in n-hexane	0.0192	0.0201	0.0215	0.0234	0.0256	0.0279	0.0307	0.0337	0.0376	0.0425
in n-propanol	0.19	0.202	0.215	0.233	0.253	0.272	0.291	0.312	0.333	0.359
